The values below come from patent publication US20030130174A1, “Glycosulfopeptide inhibitors of leukocyte rolling and methods of use thereof” (priority 2001, published 2003).

The conditions of this series: mouse, in vivo.

Molecules are shown by their SMILES. Where a SMILES comes first, the peptide text is derived from it. [ ]: non-standard residue; d: D form. The star is where a group is joined. X1 = CC(=O)N[C@@H]1[C@@H](O[C@@H]2O[C@H](CO)[C@H](O)[C@H](O)[C@H]2O)[C@@H](O)[C@@H](CO[C@@H]2O[C@H](CO)[C@@H](O[C@@H]3O[C@H](CO)[C@H](O)[C@H](O[C@]4(C(=O)O)C[C@H](O)[C@@H](NC(C)=O)[C@H]([C@H](O)[C@H](O)CO)O4)[C@H]3O)[C@H](O[C@@H]3O[C@@H](C)[C@@H](O)[C@@H](O)[C@@H]3O)[C@H]2NC(C)=O)O[C@@H]1*; sY = N[C@@H](Cc1ccc(OS(=O)(=O)O)cc1)C(=O)O

Method: Microscopic observations were made using an upright microscope (NIKON ECLIPSE E600-FN, Nikon UK Ltd, UK) equipped with a water immersion objective (40×/0.80 W). Images were recorded using a CCD camera (DAGE MTI DC-330, DAGE MTI Inc, Michigan City, Ind.) onto sVHS video-cassettes. Venules (20-40 μM diameter) were selected and typically observed for the entire experimental period. Centre-line blood flow velocity (VCL) in was measured in vessels of interest using a commercially available velocimeter (CIRCUSOFT, Hockessin, Del.). Vessels with VCL between 1 and 5 mm/s were selected for these studies.
Control leukocyte rolling was recorded exactly 30 min after exposure of the cremaster muscle for intravital microscopy since leukocyte rolling at this time is almost exclusively P-selectin-dependent . GSPs were injected at 31 min and their effects monitored for 10 min. […] Blood flow velocities and circulating leukocyte concentrations were measured at key times (before and after treatments) during experiments.

For the compound `CC(=O)N[C@H]1[C@H](OC[C@H]2O[C@H](O[C@H](C)[C@H](NC(=O)[C@H](CCC(=O)O)NC(=O)[C@@H]3CCCN3C(=O)[C@H](CC(C)C)NC(=O)[C@H](Cc3ccccc3)NC(=O)[C@H](CC(=O)O)NC(=O)[C@H](Cc3ccc(OS(=O)(=O)O)cc3)NC(=O)[C@H](CC(=O)O)NC(=O)[C@H](CC(C)C)NC(=O)[C@H](Cc3ccc(OS(=O)(=O)O)cc3)NC(=O)[C@H](CCC(=O)O)NC(=O)[C@H](Cc3ccc(OS(=O)(=O)O)cc3)NC(=O)[C@@H](N)CCC(=O)O)C(=O)N[C@@H](CCC(=O)O)C(=O)N3CCC[C@H]3C(=O)N3CCC[C@H]3C(=O)N[C@@H](CCC(=O)O)C(=O)N[C@@H](CS)C(=O)O)[C@H](NC(C)=O)[C@@H](O[C@@H]3O[C@H](CO)[C@H](O)[C@H](O)[C@H]3O)[C@H]2O)O[C@H](CO)[C@@H](O[C@@H]2O[C@H](CO)[C@H](O)[C@H](O[C@]3(C(=O)O)C[C@H](O)[C@@H](NC(C)=O)[C@H]([C@H](O)[C@H](O)CO)O3)[C@H]2O)[C@@H]1O[C@@H]1O[C@@H](C)[C@@H](O)[C@@H](O)[C@@H]1O` [2-GSP-6] (H-E[sY]E[sY]LD[sY]DFLPET(X1)EPPEC-OH), the “Systemic leukocyte counts following treatment” value is listed as “increased slightly”.
